In patent US8652525B2, “NSAID delivery from polyarylates” (TYRX, Inc., priority 2008, dated 2014):
One block for each compound: values may come before it.

Tests used:
[1] = Ketoprofen release studies from polyarylate films and microparticles in phosphate buffered saline, HPLC; conditions: for ketoprofen release rate: p(10% DT, DTE succinate) film; for ketoprofen released per day: p(10% DT, DTE succinate) solvent cast film
[2] = In vitro release profile of ketoprofen-loaded microparticles using dialysis tubes; assay type: physicochemical; conditions: p(10% DT, DTE succinate) microparticles 125-180 μm, 40% loading
Experimental: The p(10% DT, DTE succinate) was dried at 40° C. for 3 days and analyzed. 4.8 g of polymer was placed in a plastic beaker and topped with an excess of ethanol. The polymer was allowed to stand in ethanol at 50° C. for 2-3 hours. […] After overnight drying, the polymer/drug mixture was ground using a coffee grinder (overhead design). First, the polymer/drug mixture was cooled in liquid nitrogen. Then the polymer-drug mass was mixed with ground dry ice, added to the container of the grinder and ground at the highest speed for at least 5 min. The whole mixture of dry ice plus polymer/drug powder was transferred into a beaker, covered with Kimwipes™ and placed into a vacuum oven at 40° C. to dry overnight.
The in vitro release profile of the microparticles was determined using dialysis tubes.

[3] = given orally for systemic distribution; cited from earlier work
[4] = p(10% DT, DTE succinate) solvent cast film, 20% loading
Experimental: 1 ml of the buffer was withdrawn periodically and run through the HPLC system described in Example 1.
Naproxen was formulated at 20% loading in a matrix of p(10% DT, DTE succinate) by solvent casting from methylene chloride and assessed for long-term release.

post-operative pain = conditions: after cesarean delivery; comparator ropivacaine continuous wound infiltration with intravenous (iv) diclofenac; cited from earlier work
[5] = p(10% DT, DTE adipate), PBS pH 7.4, 37° C.
[6] = p(10% DT, DTE succinate) melt processed, compression molded film

ketoprofen release mechanism (shape of the release curve) ([1]; DTO polymers, PBS pH 7.4, 37° C.): diffusion controlled
ketoprofen release kinetics ([1]; microparticles milled from compression molded p(10% DT, DTE succinate) film, all sizes): fairly linear release
time until ketoprofen release is completed ([1]; microparticles milled from compression molded p(10% DT, DTE succinate) film, largest particles (>500 microns)): about 60 days
time until ketoprofen release is completed ([1]; microparticles milled from compression molded p(10% DT, DTE succinate) film, smallest particles (212 to 425 microns)): about 40 days
ketoprofen release kinetics ([1]; p(10% DT, DTE adipate), after initial burst, PBS pH 7.4, 37° C.): approximately zero order kinetics
duration of ketoprofen release [1, 5]: 2 weeks
initial burst of ketoprofen release [1, 5]: 20%
ketoprofen release rate ([1]; HMW polymer (94,000)): about 3 % per day
ketoprofen release rate ([1]; LMW polymer (67,800)): about 5 % per day
ketoprofen release kinetics [1, 6]: zero order kinetics
rate of ketoprofen release [1, 6]: 1.3 % per day
ketoprofen released per day ([1]; 10% loading, PBS pH 7.4, 37° C.): about 2 % per day
ketoprofen released per day ([1]; 20% loading, PBS pH 7.4, 37° C.): 5 % per day
ketoprofen released per day ([1]; 30% loading, PBS pH 7.4, 37° C.): 6 % per day
ketoprofen released per day ([1]; 40% loading, PBS pH 7.4, 37° C.): about 8 % per day
ketoprofen release kinetics ([1]; p(10% DT, DTE succinate) solvent cast films, all four loadings 10%, 20%, 30%, 40%): zero order kinetics
ketoprofen release after 6 days [2]: 100%
ketoprofen released within 24 hours [2]: About 50%
SMILES: CC(C(=O)O)c1cccc(C(=O)c2ccccc2)c1 (centres unmarked) [ketoprofen]
effective plasma concentration range [3]: 1,000-4,000 ng/mL

drug released per day [4]: 1 % per day
release kinetics [4]: zero order kinetics
time until release is complete [4]: about 3 months
SMILES: COc1ccc2cc([C@H](C)C(=O)O)ccc2c1 [Naproxen]

SMILES: O=C(O)Cc1ccccc1Nc1c(Cl)cccc1Cl [diclofenac]
efficacy of continuous wound infiltration versus comparator (post-operative pain): more effective
